Results reported in patent US7932050B2, “Enzymatic substrates derived from phenoxazinone and their use as developers in detection of microorganisms with peptidase activity” (bioMerieux, priority 2004, dated 2011).

Key:
Type in all cases: cell-based
[1] = test system: Pseudomonas aeruginosa; assay: Detection of pyroglutamyl peptidase activity (example 10), colony coloration; conditions: between 24 and 48 h of incubation, no accession No.
[2] = test system: Burkholderia cepacia GI LMG1222; assay: as above; conditions: between 24 and 48 h of incubation; strain LMG1222
[3] = test system: Burkholderia cepacia GIII LMG 18832; assay: as above; conditions: between 24 and 48 h of incubation; strain LMG 18832
[4] = test system: Acinetobacter baumannii ATCC 19606; assay: as above; conditions: between 24 and 48 h of incubation; strain ATCC 19606
[5] = test system: Acinetobacter calcoaceticus; assay: as above; conditions: between 24 and 48 h of incubation
[6] = test system: Pseudomonas fluorescens; assay: as above; conditions: between 24 and 48 h of incubation
[7] = test system: Pseudomonas fragilis NCIMB 8987; assay: as above; conditions: between 24 and 48 h of incubation; strain NCIMB 8987
[8] = test system: Pseudomonas maltophilia; assay: as above; conditions: between 24 and 48 h of incubation
[9] = test system: Ralstonia basilensis; conditions: between 24 and 48 h of incubation
[10] = test system: Ralstonia taiwanensis; conditions: between 24 and 48 h of incubation
[11] = first P. aeruginosa strain of table 3 (r6)
[12] = second P. aeruginosa strain of table 3 (r8)
[13] = third P. aeruginosa strain of table 3 (r10)

Measured: coloration

CCCCCc1c2nc3ccc(NC(=O)[C@@H]4CCC(=O)N4)cc3oc-2cc(=O)c1Cl [Chlorinated pyroglutamyl compound, 7-N-(L-pyroglutamyl)amino-2-chloro-1-pentylphenoxazin-3-one]
yellow: [2] | [3]
purple: [1]; [11] | [1]; [12] | [1]; [13]
colorless: [4] | [5] | [6] | [7] | [8] | [9] | [10]

CCCCCc1cc(=O)cc2oc3cc(NC(=O)[C@@H]4CCC(=O)N4)ccc3nc1-2 [Nonchlorinated pyroglutamyl compound, 7-N-(L-pyroglutamyl)amino-1-pentylphenoxazin-3-one]
colorless: [4] | [5] | [6] | [7] | [8] | [9] | [10]
purple: [1]; [11] | [1]; [12] | [1]; [13]
yellow: [2] | [3]
